{"source": "paper PMC10888192", "about": "“New Derivatives of 1-(3-Methyl-1-Benzofuran-2-yl)Ethan-1-one: Synthesis and Preliminary Studies of Biological Activity” (International Journal of Molecular Sciences, 2024)", "key": {"K562 cells [1]": {"test_system": "K562 cells", "experiment": "Annexin V-FITC/PI apoptosis assay, flow cytometry", "assay_type": "cell-based, human", "details": "Annexin V-FITC, IC50 concentration, 72 h", "excerpt": "ROS may play a different function in different stages of cancer. ROS might enhance cell growth and proliferation through the induction of various cell signaling pathways involving nuclear factor-kappa B (NF-κB) and STAT3, hypoxia-inducible factor 1α (HIF1α), kinases, growth factors, cytokines and many other proteins. On the other hand, the accumulation of ROS can induce cell damage and promote apoptosis. It has also been confirmed that elevated ROS concentration may cause mitochondrial membrane depolarization and facilitate increased cellular pro-apoptotic molecules releasing. […] As has been previously reported, lead compound 1,1′-[3-(bromomethyl)-5,6-dimethoxy-1-benzofuran-2,7-diyl] induces apoptosis in human leukemia cells. […] We used the Annexin V-FITC test, which allows us to detect the early structural changes in cellular membrane which occur during apoptosis. […] In the control sample almost 94% of cells were neither apoptotic nor necrotic. […] As has been previously written, the MTT test assesses the toxicity of tested compounds based on the activity of mitochondrial enzymes. […] In order to estimate the effect of K562 exposure on the tested compounds as well as to confirm apoptotic properties of new benzofurans, we analyzed the effect of the compounds caspases 3 and 7 activities. […]"}, "HaCaT cells": {"test_system": "HaCaT cells", "experiment": "Trypan blue exclusion assay, HaCaT", "assay_type": "cell-based, human", "details": "IC50 concentration, 72 h", "procedure": "(§1) The MTT assay assesses the viable cell number based on mitochondrial enzyme activity. […] In the next step of our studies, we analyzed the total cell number and viability after exposure to the selected compounds at IC50 concentration using trypan blue exclusion assay. K562 cells were incubated with tested compounds over 72 h. […] To assess the antiproliferative properties of newly synthesized derivatives, we analyzed the total cell number. […] The parallel experiment was conducted with HaCaT cells. […] The trypan blue test rapidly assesses cell viability indirectly from cell membrane integrity, but some publications have indicated weaknesses of this viability test. […] On the other hand, cell membrane integrity may be affected even while the cell might still be able to repair itself and become fully viable.\nTo evaluate the antiproliferative effects of the novel benzofurans derivatives the trypan blue exclusion assay was performed. Cells (HaCat, and K562) were seeded into 12-well plates (2 × 10^4 cells/well). After 24 h, cells were exposed to the tested compounds at concentrations of their respective IC50 and incubated for 72h. […] Cells were counted by automatic cell counter (Countessa). Data obtained were expressed as the mean ± SD and the mean percentage of viable cells was calculated from three independent experiments performed in triplicate."}, "[2]": {"test_system": "standard bacteria strains", "experiment": "Antibacterial screening against standard strains (overall statements)", "assay_type": "cell-based", "details": "concentrations 16 to 512 µg/mL", "procedure": "All of the obtained derivatives (1–9) were tested in vitro against a number of bacteria, including representative standard Gram-positive and Gram-negative rods. Compounds were screened for their minimal inhibitory concentrations (MICs).\nThe antimicrobial studies for all of the obtained compounds were conducted using reference strains of bacteria derived from international microbe collections—the American Type Culture Collection (ATCC) and the National Collection of Type Culture (NCTC). Among the reference strains there were two Gram-negative rods (P. aeruginosa ATCC 15442 and E. coli ATCC 25922) and six Gram-positive isolates (Staphylococcus aureus: NCTC 4163, ATCC 25923, ATCC 6538, ATCC 29213, S. epidermidis ATCC 12228, ATCC 35984). These strains are widely used to determine the activity of antimicrobials and check the drug susceptibility of bacteria, and their use enables comparison of assay results obtained in independent laboratories all over the world.\nThe antimicrobial activity of compounds was expressed by minimum inhibitory concentration values (MICs), according to CLCI reference procedures with some modifications. MIC was tested by the two-fold serial microdilution method (in 96-well microtiter plates) on MH II liquid medium. The final inoculum of all of the studied bacteria was 10^6 CFU/mL (colony forming unit per mL). […]"}, "K562 cells [3]": {"test_system": "K562 cells", "experiment": "Trypan blue exclusion assay, K562", "assay_type": "cell-based, human", "details": "72 h; for Cell Number (×10^6): K562, trypan blue, IC50 concentration", "procedure": "as §1\nTo evaluate the antiproliferative effects of the novel benzofurans derivatives the trypan blue exclusion assay was performed. Cells (HaCat, and K562) were seeded into 12-well plates (2 × 10^4 cells/well). After 24 h, cells were exposed to the tested compounds at concentrations of their respective IC50 and incubated for 72h. Then, cells were harvested and centrifugated (500× g, 5min). After centrifugation supernatant was removed and cell sediment was dissolved in 0.2 mL of PBS. Next, 10 µL of cells solution was mixed with 10 µL of trypan blue dye. Cells were counted by automatic cell counter (Countessa). Data obtained were expressed as the mean ± SD and the mean percentage of viable cells was calculated from three independent experiments performed in triplicate."}}}
{"smiles": "COc1cc(OC)c2c(CBr)c(C(C)=O)oc2c1", "note": "[Compound 6, 1-[3-(Bromomethyl)-4,6-Dimethoxy-1-Benzofuran-2-yl]Ethanone]", "values": [{"measurement": "Apoptosis (early and late stages), share of K562 cells", "setting": "K562 cells [1]", "result": 21.6, "unit": "%"}, {"measurement": "Cell Number (×10^6)", "setting": "HaCaT cells", "result": "2.45 ± 1.63 ×10^6"}, {"measurement": "Antimicrobial activity against the studied strains", "setting": "[2]", "result": "did not show antimicrobial properties against the studied strains"}, {"measurement": "Reduction of total cell number", "setting": "K562 cells [3]; K562, IC50 concentration, compared to control", "result": 13, "unit": "%"}, {"measurement": "Cell Number (×10^6)", "setting": "K562 cells [3]", "result": "0.62 ± 0.12 ×10^6"}]}
{"smiles": "CCOc1cccc2oc(C(C)=O)c(CBr)c12", "note": "[Compound 8, 1-[3-(Bromomethyl)-4-Ethoxy-1-Benzofuran-2-yl]Ethanone]", "values": [{"measurement": "Apoptosis (early and late stages), share of K562 cells", "setting": "K562 cells [1]", "result": 60.1, "unit": "%"}, {"measurement": "Cell Number (×10^6)", "setting": "HaCaT cells", "result": "2.00 ± 0.42 ×10^6"}, {"measurement": "Cell Number (×10^6)", "setting": "K562 cells [3]", "result": "0.83 ± 0.12 ×10^6"}]}
